Results on 29 compounds are retold here after ChEMBL document CHEMBL1146367, “Substituted thiophene-anthranilamides as potent inhibitors of human factor Xa” (Bioorg Med Chem, 2007).

The target in series [1] is Coagulation factor X (Homo sapiens, UniProt P00742). In words: Binding affinity to human factor 10a after 10 mins. The conditions noted are these: read-out: Ki app.
Series [2] addresses Prothrombin (Homo sapiens, UniProt P00734). In words: Binding affinity to human thrombin after 10 mins. The conditions noted are these: read-out: Ki app.
Series [3] can be described thus: Binding affinity to bovine trypsin after 10 mins. Also on record: species or system Bos taurus. The conditions noted are these: read-out: Ki app.
Series [4] relates to Plasma. In words: Anticoagulant activity in human plasma assessed as concentration required to double prothrombin time. Format: functional, cell-free.
A short description of series [5]: Dissociation constant, pKa of the compound. The series is classed as physicochemical.
The nature of series [6]: Half life in Beagle dog at 1 mg/kg, iv. The series is classed as ADME, organism-based, Canis lupus familiaris. Details: dose 1 mg/kg, route intravenous. Conditions: in vivo.
A short description of series [7]: Clearance in Beagle dog at 1 mg/kg, iv. The conditions noted are these: in vivo. Details: dose 1 mg/kg, route intravenous. The series is classed as ADME, organism-based, Canis lupus familiaris.
A short description of series [8]: Volume of distribution at steady state in Beagle dog at 1 mg/kg, iv. The series is classed as ADME, organism-based, Canis lupus familiaris. Also on record: dose 1 mg/kg, route intravenous. The conditions noted are these: in vivo, read-out: Vdss.
Series [9] is described as follows: Plasma concentration in Beagle dog at 10 mg/kg, po. Details: dose 10 mg/kg, route oral. The series is classed as ADME, organism-based, Canis lupus familiaris.
Series [10] in a line: Bioavailability in Beagle dog at 10 mg/kg, po. Conditions: in vivo. Format: ADME, organism-based, Canis lupus familiaris.

Chain of Coagulation factor X (P00742 41-179 limits assumed): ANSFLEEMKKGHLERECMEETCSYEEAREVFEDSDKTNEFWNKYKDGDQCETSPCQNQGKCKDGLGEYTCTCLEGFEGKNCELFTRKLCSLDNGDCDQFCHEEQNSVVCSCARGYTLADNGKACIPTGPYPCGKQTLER
Chain of Coagulation factor X (P00742 235-488 limits assumed): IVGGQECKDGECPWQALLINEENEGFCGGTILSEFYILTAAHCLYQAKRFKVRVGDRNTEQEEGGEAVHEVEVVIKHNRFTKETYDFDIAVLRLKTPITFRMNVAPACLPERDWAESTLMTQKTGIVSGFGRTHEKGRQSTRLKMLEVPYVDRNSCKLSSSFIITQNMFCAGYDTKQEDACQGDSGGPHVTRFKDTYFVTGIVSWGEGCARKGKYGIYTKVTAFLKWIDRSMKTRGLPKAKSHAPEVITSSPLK

With `O=C(Nc1ccc(Cl)cc1)c1cc(Cl)ccc1NC(=O)c1sc(Cn2ccnc2)cc1Cl`, the Ki is 7.2 nM in [1], 510 nM in [2] and above 5000 nM in series [3]. The Cp in series [4] amounted to 24 µM.
On the same counts, the results for `CSCc1csc(C(=O)Nc2ccc(Cl)cc2C(=O)Nc2ccc(Cl)cc2)c1Cl` are 0.8 nM, above 5000 nM, above 5000 nM and above 200 µM.
Consider `O=C(Nc1ccc(Cl)cc1)c1cc(Cl)ccc1NC(=O)c1scc(Cn2cccn2)c1Cl`, for which the Ki in [1] was 2.1 nM; in series [2], 550 nM; in series [3] it was above 5000 nM. The Cp in [4] was determined as 49 µM.
With `O=C(Nc1ccc(Cl)cc1)c1cc(Cl)ccc1NC(=O)c1sc(CN2CCOCC2)cc1Cl`, the values for the Ki in series [1], in series [2] and in [3] were 34 nM, above 5000 nM and above 5000 nM, respectively. Moreover, the Cp in series [4] is above 500 µM.
In the case of `O=C(Nc1ccc(Cl)cc1)c1cc(Cl)ccc1NC(=O)c1scc(CN2CCOCC2)c1Cl`, the Ki in series [1] was 6.2 nM; in series [2], 2300 nM; in [3] it was above 5000 nM. In addition, the Cp in series [4] turned out to be 59 µM.
On to `CN(C)CCSCc1csc(C(=O)Nc2ccc(Cl)cc2C(=O)Nc2ccc(Cl)cc2)c1Cl`, for which the Ki in [1] is 2.7 nM; in series [2], 560 nM; in [3], above 5000 nM. Besides, in series [4], the Cp came to 19 µM. Also, in series [5], the pKa amounted to 8.9.
Consider `O=C(Nc1ccc(Cl)cc1)c1cc(Cl)ccc1NC(=O)c1scc(Cn2nccn2)c1Cl`, for which the Ki in series [1] was 3.5 nM; in series [2], 3300 nM; in series [3] it was above 5000 nM. Besides, the Cp in series [4] was determined as 83 µM.
The like results for `COCCOCc1csc(C(=O)Nc2ccc(Cl)cc2C(=O)Nc2ccc(Cl)cc2)c1Cl` were, in that order, 12 nM, above 5000 nM, above 5000 nM and 110 µM.
Regarding `CN1CCN(Cc2csc(C(=O)Nc3ccc(Cl)cc3C(=O)Nc3ccc(Cl)cc3)c2Cl)CC1`, the Ki in series [1] was 1 nM; in series [2] it was 910 nM; in [3], above 5000 nM. For the same compound, the Cp in series [4] came to 12 µM. Moreover, the half-life in [6] is 2 h. The compound also had a clearance in series [7] of 5 mL/min/kg. For the same compound, the Vd in series [8] was 0.7 L/kg. In series [9], the Cmax worked out at 6.3 µM. Besides, in series [10], the bioavailability came to 41%.
Consider `O=C(Nc1ccc(Cl)cc1)c1cc(Cl)ccc1NC(=O)c1scc(COCC(O)CO)c1Cl` (configuration not stated), for which the Ki in [1] was 5.7 nM; in series [2], 2400 nM; in series [3], above 5000 nM. Also, the Cp in [4] was determined as 30 µM.
On the same counts, the results for `CN(C)CCN(C)Cc1csc(C(=O)Nc2ccc(Cl)cc2C(=O)Nc2ccc(Cl)cc2)c1Cl` are 0.45 nM, 160 nM, above 5000 nM and 4.6 µM.
On the same counts, the results for `COCCOCCOCc1csc(C(=O)Nc2ccc(Cl)cc2C(=O)Nc2ccc(Cl)cc2)c1Cl` are 10 nM, 3600 nM, above 5000 nM and 95 µM.
Take `O=C(Nc1ccc(Cl)cc1)c1cc(Cl)ccc1NC(=O)c1scc(Cn2cncn2)c1Cl`: the Ki in series [1] is 1.6 nM; in [2] it was 2400 nM; in series [3] it was above 5000 nM. Besides, in series [4], the Cp stood at 18 µM.
Turning to `CN(CCOCCO)Cc1csc(C(=O)Nc2ccc(Cl)cc2C(=O)Nc2ccc(Cl)cc2)c1Cl`, the Ki in series [1] is 1.5 nM; in series [2], 1100 nM; in series [3], above 5000 nM. Also, in series [4], the Cp is 8.8 µM.
In the case of `CN(C)CCCN(C)Cc1csc(C(=O)Nc2ccc(Cl)cc2C(=O)Nc2ccc(Cl)cc2)c1Cl`, the Ki in series [1] is 0.6 nM; in [2], 190 nM; in [3], above 5000 nM. The Cp in series [4] is 2.9 µM.
On the same counts, the results for `O=C(Nc1ccc(Cl)cc1)c1cc(Cl)ccc1NC(=O)c1scc(Cn2ncnn2)c1Cl` are 2 nM, above 5000 nM, above 5000 nM and 63 µM.
In the case of `Cc1c(CN2CCN(C)CC2)sc(C(=O)Nc2ccc(Cl)cc2C(=O)Nc2ccc(Cl)cc2)c1Cl`, the Ki was 10 nM in series [1], 1500 nM in series [2] and above 5000 nM in [3]. Besides, the Cp in series [4] was determined as 58 µM.
The like results for `CN1CCC(N(C)Cc2csc(C(=O)Nc3ccc(Cl)cc3C(=O)Nc3ccc(Cl)cc3)c2Cl)CC1` were, in that order, 0.38 nM, 310 nM, above 5000 nM and 3.2 µM.
The like results for `O=C(Nc1ccc(Cl)cc1)c1cc(Cl)ccc1NC(=O)c1scc(Cn2ccnc2)c1Cl` were, in that order, 1.9 nM, 1000 nM, above 5000 nM and 18 µM.
In the case of `CCCNCc1sc(C(=O)Nc2ccc(Cl)cc2C(=O)Nc2ccc(Cl)cc2)c(Cl)c1CNCCC`, the Ki in series [1] is 7.5 nM; in series [2] it was 1500 nM; in series [3], above 5000 nM. For the same compound, in series [4], the Cp came out at 19 µM.
As to `CN(CCO)Cc1csc(C(=O)Nc2ccc(Cl)cc2C(=O)Nc2ccc(Cl)cc2)c1Cl`, the values for the Ki in [1], in [2] and in [3] were 0.8 nM, 830 nM and above 5000 nM, respectively. Moreover, the Cp in series [4] amounted to 7 µM.
On the same counts, the results for `CCOC(=O)CN(C)Cc1csc(C(=O)Nc2ccc(Cl)cc2C(=O)Nc2ccc(Cl)cc2)c1Cl` are 5.2 nM, 2300 nM, above 5000 nM and 160 µM.
On the same counts, the results for `C[S+]([O-])Cc1csc(C(=O)Nc2ccc(Cl)cc2C(=O)Nc2ccc(Cl)cc2)c1Cl` (configuration not stated) are 0.4 nM, 970 nM, above 5000 nM and 5.6 µM.
On to `CCN(CC)CCN(C)Cc1csc(C(=O)Nc2ccc(Cl)cc2C(=O)Nc2ccc(Cl)cc2)c1Cl`, for which the Ki in series [1] is 0.52 nM; in series [2], 120 nM; in [3], above 5000 nM. The Cp in [4] is 3.9 µM.
On the same counts, the results for `O=C(Nc1ccc(Cl)cc1)c1cc(Cl)ccc1NC(=O)c1scc(CN2CCSCC2)c1Cl` are 4.8 nM, above 5000 nM, above 5000 nM and 400 µM.
For `CN1CCN(Cc2cc(Cl)c(C(=O)Nc3ccc(Cl)cc3C(=O)Nc3ccc(Cl)cc3)s2)CC1`, the Ki in [1] was 5.6 nM; in series [2], 1000 nM; in [3], above 5000 nM. Moreover, in series [4], the Cp amounted to 13 µM.
Turning to `O=C(Nc1ccc(Cl)cc1)c1cc(Cl)ccc1NC(=O)c1scc(CNCCCn2ccnc2)c1Cl`, the Ki in series [1] is 4.6 nM; in series [2] it was 1800 nM; in series [3], above 5000 nM. Further, in [4], the Cp turned out to be 24 µM.
In the case of `O=C(Nc1ccc(Cl)cc1)c1cc(Cl)ccc1NC(=O)c1scc(CNCCOCCO)c1Cl`, the values for the Ki in series [1], in series [2] and in [3] were 3.4 nM, 3200 nM and above 5000 nM, respectively. The Cp in series [4] was 20 µM.
On the same counts, the results for `CCN1CCN(Cc2csc(C(=O)Nc3ccc(Cl)cc3C(=O)Nc3ccc(Cl)cc3)c2Cl)CC1` are 1.6 nM, above 5000 nM, above 5000 nM and 12 µM.

For orientation: pKa means the negative logarithm of the acid dissociation constant. A lower pKa goes with a group that gives up its proton readily. The half-life is how long it takes for the measured level to halve. A high value points to slow loss. Broadly, the clearance is the rate of elimination divided by the concentration. The low end stands for inefficient removal, the high end for efficient removal. Broadly, the Cmax is the peak of the concentration-time curve. As a reminder, the bioavailability is dose-corrected exposure relative to a reference, in per cent. A high value points to good availability.
